Experimental data published in ChEMBL document CHEMBL4613209, “Quinolone hybrids and their anti-cancer activities: An overview” (Eur J Med Chem, 2019).

Assays:
Type in all cases: functional, cell-based
[1] = tested on: HL-60; experiment: Cytotoxicity against human HL60 cells assessed as reduction in cell viability
[2] = tested on: CAPAN-1; experiment: Cytotoxicity against human Capan1 cells assessed as reduction in cell viability
[3] = tested on: Hep 3B2; experiment: Cytotoxicity against human Hep3B cells assessed as reduction in cell viability
[4] = tested on: HCT-116; experiment: Cytotoxicity against human HCT116 cells assessed as reduction in cell viability by SRB assay
[5] = tested on: NCI-H460; experiment: Cytotoxicity against human NCI-H460 cells assessed as reduction in cell viability by SRB assay
[6] = tested on: U-251; experiment: Cytotoxicity against human U251 cells assessed as reduction in cell viability by SRB assay
[7] = tested on: SMMC-7721; experiment: Antiproliferative activity against human SMMC7721 cells by MTT assay
[8] = tested on: L1210; experiment: Antiproliferative activity against mouse L1210 cells by MTT assay
[9] = tested on: HL-60; experiment: Antiproliferative activity against human HL60 cells by MTT assay
[10] = tested on: L1210; experiment: Cytotoxicity against mouse L1210 cells assessed as reduction in cell viability
[11] = tested on: SMMC-7721; experiment: Cytotoxicity against human SMMC7721 cells assessed as reduction in cell viability
[12] = tested on: MCF7; experiment: Cytotoxicity against human MCF7 cells assessed as reduction in cell viability by MTT assay
[13] = tested on: SMMC-7721; experiment: Cytotoxicity against human SMMC7721 cells assessed as reduction in cell viability by MTT assay
[14] = tested on: L1210; experiment: Cytotoxicity against mouse L1210 cells assessed as reduction in cell viability by MTT assay
[15] = tested on: HL-60; experiment: Cytotoxicity against human HL60 cells assessed as reduction in cell viability by MTT assay
[16] = tested on: Hep 3B2; experiment: Cytotoxicity against human Hep3B cells assessed as reduction in cell viability by MTT assay
[17] = tested on: CAPAN-1; experiment: Cytotoxicity against human Capan1 cells assessed as reduction in cell viability by MTT assay
[18] = tested on: SK-MEL3; experiment: Cytotoxicity against human SK-MEL-3 cells assessed as reduction in cell viability by MTT assay
[19] = tested on: A-431; experiment: Cytotoxicity against human A431 cells assessed as reduction in cell viability by MTT assay
[20] = tested on: EJ; experiment: Cytotoxicity against human EJ cells assessed as reduction in cell viability by MTT assay
[21] = tested on: SW480; experiment: Cytotoxicity against human SW480 cells assessed as reduction in cell viability by MTT assay
[22] = tested on: A549; experiment: Antiproliferative activity against human A549 cells after 72 hrs by MTT assay; settings: A549, 72 h
[23] = tested on: HL-60; experiment: Antiproliferative activity against human HL60 cells after 72 hrs by MTT assay; settings: HL-60, 72 h
[24] = tested on: CHO; experiment: Cytotoxicity against CHO cells assessed as reduction in cell viability; settings: Cricetulus griseus
[25] = tested on: A549; experiment: Antiproliferative activity against human A549 cells by CCK8 assay
[26] = tested on: HeLa; experiment: Antiproliferative activity against human HeLa cells by CCK8 assay

## CN1CCN(c2cc3c(cc2F)c(=O)c(-c2nc4s/c(=C\c5ccc([N+](=O)[O-])cc5)c(=O)n4n2)cn3C2CC2)CC1
[1]
  IC50: 0.3 to 8.4 µM
[2]
  IC50: 0.3 to 8.4 µM
[3]
  IC50: 0.3 to 8.4 µM

## Cc1csc(NC(=O)c2cn(CCCCCC(=O)NO)c3ccccc3c2=O)n1
[4]
  IC50: 2.43 to 2.9 µM
[5]
  IC50: 2.43 to 2.9 µM
[6]
  IC50: 2.43 to 2.9 µM

## O=C(O)c1cn(C2CC2)c2c(c1=O)C=C(F)C1=NN=C(c3ccc([N+](=O)[O-])cc3)CN12
[7]
  IC50: 1 µM
[8]
  IC50: 3.5 µM
[9]
  IC50: 1 to 48.6 µM

## COc1ccc(/C=c2\sc3nc(-c4cn(C5CC5)c5cc(N6CCN(C)CC6)c(F)cc5c4=O)nn3c2=O)cc1
[1]
  IC50: > 10 µM
[2]
  IC50: > 10 µM
[3]
  IC50: > 10 µM

## COC(=O)c1cccc(/C=c2\sc3nc(-c4cn(C5CC5)c5cc(N6CCN(C)CC6)c(F)cc5c4=O)nn3c2=O)c1
[1]
  IC50: 0.3 to 8.4 µM
[2]
  IC50: 0.3 to 8.4 µM
[3]
  IC50: 0.3 to 8.4 µM

## CN1CCN(c2cc3c(cc2F)c(=O)c(-c2nc4s/c(=C\c5ccc(C#N)cc5)c(=O)n4n2)cn3C2CC2)CC1
[1]
  IC50: > 10 µM
[2]
  IC50: > 10 µM
[3]
  IC50: > 10 µM

## COc1ccc2c(c1)c(=O)c(C(=O)Nc1cc(-c3ccccc3)nn1C)cn2CCCCCC(=O)NO
[4]
  IC50: 0.6 to 16 µM
[5]
  IC50: 0.6 to 16 µM
[6]
  IC50: 0.6 to 16 µM

## Cc1ccc(/C=c2\sc3nc(-c4cn(C5CC5)c5cc(N6CCN(C)CC6)c(F)cc5c4=O)nn3c2=O)cc1
[1]
  IC50: > 10 µM
[2]
  IC50: > 10 µM
[3]
  IC50: > 10 µM

## CC(=O)n1nc2c(c1-c1cccs1)c(=O)[nH]c1ccccc12
[4]
  IC50: 0.16 to 0.3 µM
[5]
  IC50: 0.16 to 0.3 µM
[6]
  IC50: 0.16 to 0.3 µM

## CCn1cc(-c2nnc(SC/C(=N/NC(N)=S)c3ccccc3O)[nH]2)c(=O)c2cc(F)c(N3CCN(C)CC3)cc21
[10]
  IC50: 2.7 to 8.6 µM
[1]
  IC50: 2.7 to 8.6 µM
[11]
  IC50: 2.7 to 8.6 µM

## CN1CCN(c2cc3c(cc2F)c(=O)c(-c2nc4s/c(=C\c5ccc(C(=O)O)cc5)c(=O)n4n2)cn3C2CC2)CC1
[1]
  IC50: 0.3 to 8.4 µM
[2]
  IC50: 0.3 to 8.4 µM
[3]
  IC50: 0.3 to 8.4 µM

## CCn1cc(-c2nnc(SC/C(=N/NC(N)=S)c3ccc(O)c(OC)c3)[nH]2)c(=O)c2cc(F)c(N3CCN(C)CC3)cc21
[10]
  IC50: 2.7 to 8.6 µM
[1]
  IC50: 2.7 to 8.6 µM
[11]
  IC50: 2.7 to 8.6 µM

## CN1CCN(c2cc3c(cc2F)c(=O)c(-c2nc4s/c(=C\c5cccc([N+](=O)[O-])c5)c(=O)n4n2)cn3C2CC2)CC1
[1]
  IC50: 0.3 to 8.4 µM
[2]
  IC50: 0.3 to 8.4 µM
[3]
  IC50: 0.3 to 8.4 µM

## CCn1cc(-c2nnc(SC/C(=N/NC(N)=S)c3ccc(C)cc3)[nH]2)c(=O)c2cc(F)c(N3CCN(C)CC3)cc21
[10]
  IC50: 2.7 to 27.6 µM
[1]
  IC50: 2.7 to 27.6 µM
[11]
  IC50: 2.7 to 27.6 µM

## O=C(O)c1cn(C2CC2)c2c(c1=O)C=C(F)C1=NN=C(c3ccccc3F)CN12
[7]
  IC50: 1 to 48.6 µM
[8]
  IC50: 1 to 48.6 µM
[9]
  IC50: 1 to 48.6 µM

## COC(=O)c1ccc(/C=c2\sc3nc(-c4cn(C5CC5)c5cc(N6CCN(C)CC6)c(F)cc5c4=O)nn3c2=O)cc1
[1]
  IC50: 0.3 to 8.4 µM
[2]
  IC50: 0.3 to 8.4 µM
[3]
  IC50: 0.3 to 8.4 µM

## COc1ccccc1/C=c1\sc2nc(-c3cn(C4CC4)c4cc(N5CCN(C)CC5)c(F)cc4c3=O)nn2c1=O
[1]
  IC50: > 10 µM
[2]
  IC50: > 10 µM
[3]
  IC50: > 10 µM

## CC(=O)n1cc2c(=O)[nH]c3ccccc3c2n1
[4]
  IC50: 0.16 to 0.3 µM
[5]
  IC50: 0.16 to 0.3 µM
[6]
  IC50: 0.16 to 0.3 µM

## CCn1cc(-c2nnc(SC/C(=N/NC(N)=S)c3ccc([N+](=O)[O-])cc3)[nH]2)c(=O)c2cc(F)c(N3CCN(C)CC3)cc21
[10]
  IC50: 2.7 to 27.6 µM
[1]
  IC50: 2.7 to 27.6 µM
[11]
  IC50: 2.7 to 27.6 µM

## COc1ccc(-c2c3c(=O)[nH]c4ccccc4c3nn2C(C)=O)cc1
[4]
  IC50: 0.16 to 0.3 µM
[5]
  IC50: 0.16 to 0.3 µM
[6]
  IC50: 0.16 to 0.3 µM

## O=C(O)c1cn(C2CC2)c2cc(N3CCNCC3)c(F)cc2c1=O [CIPROFLOXACIN]
[12]
  IC50: > 100 µM
[13]
  IC50: 137 to 238 µM
[10]
  IC50: > 150 µM
[1]
  IC50: > 150 µM
[14]
  IC50: > 100 µM
[15]
  IC50: > 100 µM
[16]
  IC50: > 100 µM
[17]
  IC50: > 100 µM
[18]
  IC50: 137 to 238 µM
[19]
  IC50: 137 to 238 µM
[20]
  IC50: 137 to 238 µM
[21]
  IC50: 137 to 238 µM
[22]
  IC50: > 0.302 µM
[23]
  IC50: > 0.302 µM
[24]
  IC50: > 150 µM
[7]
  IC50: ≥ 100 µM
[8]
  IC50: ≥ 100 µM
[9]
  IC50: ≥ 100 µM

## O=c1[nH]cc(F)c(=O)[nH]1 [FLUOROURACIL]
[4]
  IC50: 0.54 µM
[5]
  IC50: 0.54 µM
[6]
  IC50: 0.54 µM

## CCn1cc(C(=O)O)c(=O)c2cc(F)c(N3CCN(C)CC3)cc21 [PEFLOXACIN]
[10]
  IC50: > 100 µM
[1]
  IC50: > 100 µM
[11]
  IC50: > 100 µM

## O=C(CCCCCCC(=O)Nc1ccccc1)NO [VORINOSTAT]
[25]
  IC50: 2.9 to 6.4 µM
[26]
  IC50: 2.9 to 6.4 µM
